Read-outs that look alike come from different tables or passages of the source.
How the values were obtained:
[1] = cited from earlier work; for mineralocorticoid activity: data from phase 2 studies; for off-target effects (in words): clinical trials
HDL-C, LDL-C = details: cited from earlier work
CETP [2] = test: Ex vivo serum CETP activity after oral administration to hamsters; design: species or system Syrian Golden hamsters; details: 3 mg/kg oral, suspension in 0.5% CMC, serum 3 hours after administration
Experimental: Syrian Golden hamsters were used for the experiment after 1-week acclimatization. After an overnight fast, animals were orally given the compound suspension in 0.5% sodium carboxymethylcellulose in a volume of 10 mL/kg. Under deep anesthesia with ether, blood was collected from the abdominal aorta 3 hours after the administration. For preparation of serum, the collected blood was transferred to a plastic tube containing a clot activator, left still for 15 minutes at room temperature and centrifuged. Serum CETP activities were determined immediately.
Ninety-five μL serum were added to 5 μL of […] sodium phosphate buffered saline (pH 7.0) containing 1.5 mM 5,5′-dithio-bis(2-nitrobenzoic acid) in two 96-well V-bottom plates. One plate was incubated at 4° C. and the other was incubated at 37° C. After 18 hours of incubation, each sample was mixed with 100 μL of reagent for precipitation of apolipoprotein B-containing lipoproteins (phosphotungstate/MgCl2 reagent, Wako pure chemical), left still for 10 minutes at room temperature and centrifuged. Total cholesterol (TC) and free cholesterol (FC) in supernatant were measured using commercial kits (Cholesterol E-test wako, and Free Cholesterol E-test wako; Wako pure chemical). Cholesteryl ester (CE) was calculated by subtracting FC from TC. CETP activity was determined by the following formula: CETP activity=[CETP transfer]*/[CE value in 4° C. incubation sample] *CETP transfer=[CE value in 4° C. incubation sample]−[CE value in 37° C. incubation sample] (c) Results

CETP [3] = target: T1, CETP (Homo sapiens, UniProt P11597); test: In vitro CETP assay: 3H-labeled CE transfer from HDL to VLDL/LDL in human plasma; format: biochemical; details: 24 h pre-incubation at 37° C.
T1 construct: from tissue; host or cells: plasma of Caucasian male subjects dosed with Compound A or placebo
T1 sequence (P11597 18-493): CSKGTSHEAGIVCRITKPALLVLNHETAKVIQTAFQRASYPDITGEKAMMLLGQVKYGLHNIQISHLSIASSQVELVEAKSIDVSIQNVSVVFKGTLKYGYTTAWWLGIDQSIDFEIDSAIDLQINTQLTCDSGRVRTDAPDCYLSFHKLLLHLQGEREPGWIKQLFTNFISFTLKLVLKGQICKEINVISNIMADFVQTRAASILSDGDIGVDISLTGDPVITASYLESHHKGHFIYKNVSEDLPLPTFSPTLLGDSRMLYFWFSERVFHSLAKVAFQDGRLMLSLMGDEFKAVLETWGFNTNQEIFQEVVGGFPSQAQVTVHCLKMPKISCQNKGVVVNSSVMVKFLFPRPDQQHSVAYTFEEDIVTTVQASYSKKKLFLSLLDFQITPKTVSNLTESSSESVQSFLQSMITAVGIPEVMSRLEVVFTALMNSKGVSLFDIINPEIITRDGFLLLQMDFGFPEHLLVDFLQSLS
Experimental: Human blood was obtained from healthy male volunteers using 0.1% EDTA as an anticoagulant, and centrifuged at 3,000 rpm for 15 minutes at 4° C. Human plasma was pooled, and then used for the preparation of ^3H-labeled HDL or stored at −80° C. for CETP assay until use. The ^3H-labeled HDL was prepared with human plasma as described by Glenn and Melton (Methods in enzymology. 263; 339-351, 1996). The specific gravity of plasma was measured by a hydrometer, and the density was adjusted to 1.125 g/mL by adding solid KBr. After centrifugation at 100,000 rpm for 4 hours at 12° C. (rotor: 100.4, Optima TLX, Beckman), d>1.125 g/mL fraction was dialyzed against 4 L of Tris-saline-EDTA buffer (TSE; 50 mmol/L Tris, 150 mmol/L NaCl, 2 mmol/L EDTA, pH7.4) for 18 hours at 4° C. [1,2-^3H(N)]-Cholesterol (37 MBq/mL) was added to the dialyzed plasma fraction at the amount of 2 μCi/mL. The tube was tightly sealed under N2 gas stream and incubated at 37° C. for 18 hours with gently stirring to allow esterification of radio-labeled cholesterol by endogenous LCAT. The incubated plasma fraction was adjusted to d=1.21 g/mL with solid KBr, and centrifuged at 100,000 rpm, 12° C. for 5 hours. ^3H-labeled HDL fraction was dialyzed against 2 L of TSE at 4° C. for 18 hours. The radioactivity of ^3H-labeled HDL was counted in a liquid scintillation counter. ^3H-labeled HDL was stored at 4° C. until use.
CETP activity was determined as the rate of ^3H-labeled CE transfer from donor HDL to acceptor VLDL/LDL. Human plasma (94 μL) was pre-incubated with compounds dissolved in DMSO (1 μL) 24 hours at 37° C., and then incubated for 4 hours at 4° C. or 37° C. with 5 μL of ^3H-labeled HDL. One hundred μL of phosphotungstate/MgCl2 reagent (Wako pure chemical) were added to precipitate apoB-containing lipoproteins. After centrifugation at 3,000 rpm for 10 minutes at room temperature, the radioactivity of the supernatant was counted in a liquid scintillation counter. […] The concentration achieving 50% inhibition of CETP activity (IC50) was estimated.

[4] = 500 mg once daily monotherapy in patients
[5] = 200 mg once daily, fasted healthy subjects

Cc1cc(C)c2c(c1)[C@@H](N(Cc1cc(C(F)(F)F)cc(C(F)(F)F)c1)c1nnn(C)n1)CCCN2C[C@H]1CC[C@H](C(=O)O)CC1 [Evacetrapib, evacetrapib]
mineralocorticoid activity [1]: without mineralocorticoid activity
decrease LDL-C (HDL-C, LDL-C; [4]): 36%
increase HDL-C (HDL-C, LDL-C; [4]): 129%

CCOC(=O)N1c2ccc(C(F)(F)F)cc2C(N(Cc2cc(C(F)(F)F)cc(C(F)(F)F)c2)c2ncc(OCc3ccc(C(=O)O)cc3)cn2)CC1CC (stereo not drawn) [compound 1]
ex vivo (% inhibition) 3 mg/kg (CMC) (CETP [2]): 57.5%
IC50 (CETP [3]): 0.21 µM

CCOC(=O)N1c2ccc(C(F)(F)F)cc2[C@@H](N(Cc2cc(C(F)(F)F)cc(C(F)(F)F)c2)c2ncc(OCc3cccc(C(=O)O)c3)cn2)C[C@H]1CC [compound 2]
ex vivo (% inhibition) 3 mg/kg (CMC) (CETP [2]): 38.4%
IC50 (CETP [3]): 0.23 µM

CCOC(=O)N1c2ccc(C(F)(F)F)cc2C(N(Cc2cc(C(F)(F)F)cc(C(F)(F)F)c2)c2ncc(OCC(=O)N(C)CC(=O)O)cn2)CC1CC (stereo not drawn) [compound 4]
ex vivo (% inhibition) 3 mg/kg (CMC) (CETP [2]): 8.6%
IC50 (CETP [3]): 0.79 µM

CCOC(=O)N1c2ccc(C(F)(F)F)cc2[C@@H](N(Cc2cc(C(F)(F)F)cc(C(F)(F)F)c2)C(=O)OC)C[C@H]1CC [Torcetrapib, torcetrapib]
off-target effects (in words) [1]: increased blood pressure, changes in electrolytes
cardiovascular events and death ([1]; in combination with atorvastatin, compared with atorvastatin alone): unexpected increase in cardiovascular events and death
decrease LDL-C (HDL-C, LDL-C; dosed at 60 mg, phase 3): 25%
increase HDL-C (HDL-C, LDL-C; dosed at 60 mg, phase 3): 72%

COc1cc(F)c(C(C)C)cc1-c1ccc(C(F)(F)F)cc1CN1C(=O)O[C@H](c2cc(C(F)(F)F)cc(C(F)(F)F)c2)[C@@H]1C [Anacetrapib, anacetrapib]
mineralocorticoid activity [1]: without mineralocorticoid activity
decrease LDL-C (HDL-C, LDL-C; 150 mg once daily, patients): 40%
increase HDL C (HDL-C, LDL-C; 150 mg once daily, patients): 139%
decrease LDL-C (HDL-C, LDL-C; [5]): 36%
increase HDL C (HDL-C, LDL-C; [5]): 97%

CCOC(=O)N1c2ccc(C(F)(F)F)cc2C(N(Cc2cc(C(F)(F)F)cc(C(F)(F)F)c2)c2ncc(S(=O)(=O)CCCC(=O)O)cn2)CC1CC (stereo not drawn) [compound 6]
ex vivo (% inhibition) 3 mg/kg (CMC) (CETP [2]): 13.9%
IC50 (CETP [3]): 0.22 µM

CCC(CC)CC1(C(=O)Nc2ccccc2SC(=O)C(C)C)CCCCC1 [Dalcetrapib, dalcetrapib]
off-target effects (in words) [1]: did not appear to exhibit the off-target effects of torcetrapib
effects on LDL-C concentrations (HDL-C, LDL-C; phase 2b clinical trials): minimal effects
increase HDL-C (HDL-C, LDL-C; phase 2b clinical trials): 30-40%

CCOC(=O)N1c2ccc(C(F)(F)F)cc2C(N(Cc2cc(C(F)(F)F)cc(C(F)(F)F)c2)c2ncc(OCC(=O)N3CCCC3C(=O)O)cn2)CC1CC (stereo not drawn) [compound 5]
ex vivo (% inhibition) 3 mg/kg (CMC) (CETP [2]): 6.2%
IC50 (CETP [3]): 1.7 µM

CCOC(=O)N1c2ccc(C(F)(F)F)cc2C(N(Cc2cc(C(F)(F)F)cc(C(F)(F)F)c2)c2ncc(OCC(=O)NCC(=O)O)cn2)CC1CC (stereo not drawn) [compound 3]
ex vivo (% inhibition) 3 mg/kg (CMC) (CETP [2]): 5.4%
IC50 (CETP [3]): 0.45 µM

Source: US11642344B2, “Cholesteryl ester transfer protein (CETP) inhibitor and pharmaceutical compositions comprising said inhibitor for use in the treatment or prevention of cardiovascular diseases” (NewAmsterdam Pharma B.V., priority 2014, dated 2023)
